Data reported in US20250339399A1, “SUPRAMOLECULAR SELF-ASSEMBLY SYSTEM” (Beijing Creatron Institute of Pharmaceutical Research Co., …, priority 2022, published 2025).

How the values were obtained:
[1] = Guest molecule concentration after incubation in initial medium without polymer (Comparative Example 1); assay type: physicochemical; settings: 37° C., pH 2.0 hydrochloric acid
Procedure, shortened: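 Dissolved guest content measured by HPLC of centrifuged supernatants (37° C., 13000 rpm, 5 min) sampled at 0.5 h, 3 h and 6 h. Incubation was polymer-free at 37° C.±0.5° C. in buffers of pH 2.0-7.4; nominal loading was set by maximum clinical dose.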

[2] = 10% (W/V) Rubusoside A as building block; according to US2012/0121696A1; cited from earlier work
[3] = Comparative Example 3: systems with 10% (W/V) natural building block; assay type: physicochemical; settings: Comparative Example 3: 10% 313; 6 h
Procedure: An initial medium of each above target molecule was used to prepare a solution containing 10% Rubusoside A (313) or 10% (W/V) Mogroside V (319), the solution was sonicated at 37° C. to prepare a solution containing about 100 mg/mL building block 313 or 319 per 1 mL of the initial medium, the clear medium containing the natural building blocks was incubated in a 37° C. constant temperature air bath shaker for 1 hour, and subsequent operations and sample detection followed the steps of Comparative Examples 1 and 2. Considering that each natural building block had different UV absorption and was added at a high concentration, the more specific HPLC method was still used for quantitative determination on the solution concentration of each guest molecule, […].

[4] = Binary supramolecular self-assembly systems of polymer and target: guest concentration over incubation time (Comparative Example 2); assay type: physicochemical
Procedure: Experiments were conducted according to the steps in Comparative Example 1, and quantitative analysis was carried out using the analytical method for each target to investigate the regulation ability […] stacking.

[5] = Binary (carrier), ternary and quaternary supramolecular self-assembly systems of polymer, carrier building block and target: guest concentration over incubation time (Examples 1-56); assay type: physicochemical; settings: 6 h
Procedure, shortened: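 Targets were incubated at 37 °C in pH 2.0–7.4 buffers with 0.5% polymer alone or with carrier building blocks, after 0.5 h sonication for ternary systems, and shaken at 200 rpm. Samples at 0.5–6 h were centrifuged and diluted ≥10-fold, and dissolved target was quantified by HPLC; surfactant was added if needed.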

SMILES: Cc1ccc(-c2cc(C(F)(F)F)nn2-c2ccc(S(N)(=O)=O)cc2)cc1 [Celecoxib]
- Concentration of guest molecule measured after different incubated time ([1]; 0.5 h): 20.5 µg/mL
- Concentration of guest molecule measured after different incubated time ([1]; 3 h): 5.4 µg/mL
- Concentration of guest molecule measured after different incubated time ([1]; 6 h): 4.2 µg/mL
- Concentration in the solution [2]: 109 µg/mL
- Concentration of guest molecule in solution [3]: 31.3 µg/mL
- Concentration of the target in the solution measured after different incubation time ([4]; binary system with 0.5% polymer 101, incubation 0.5 h): 224.3 µg/mL
- Concentration of the target in the solution measured after different incubation time ([4]; binary system with 0.5% polymer 101, incubation 3 h): 62.2 µg/mL
- Concentration of the target in the solution measured after different incubation time ([4]; binary system with 0.5% polymer 101, incubation 6 h): 54.4 µg/mL
- Concentration of the target in the solution measured after different incubation time ([4]; binary system with 0.5% polymer 102, incubation 0.5 h): 19.6 µg/mL
- Concentration of the target in the solution measured after different incubation time ([4]; binary system with 0.5% polymer 102, incubation 3 h): 11.1 µg/mL
- Concentration of the target in the solution measured after different incubation time ([4]; binary system with 0.5% polymer 102, incubation 6 h): 10.6 µg/mL
- Concentration of the target in the solution measured after different incubation time ([4]; binary system with 0.5% polymer 103, incubation 0.5 h): 31.1 µg/mL
- Concentration of the target in the solution measured after different incubation time ([4]; binary system with 0.5% polymer 103, incubation 3 h): 32.2 µg/mL
- Concentration of the target in the solution measured after different incubation time ([4]; binary system with 0.5% polymer 103, incubation 6 h): 31.9 µg/mL
- Concentration of the target in the solution measured after different incubation time ([4]; binary system with 0.5% polymer 106, incubation 0.5 h): 49.0 µg/mL
- Concentration of the target in the solution measured after different incubation time ([4]; binary system with 0.5% polymer 106, incubation 3 h): 30.1 µg/mL
- Concentration of the target in the solution measured after different incubation time ([4]; binary system with 0.5% polymer 106, incubation 6 h): 26.3 µg/mL
- Concentration of the target in the solution measured after different incubation time ([4]; binary system with 0.5% polymer 107, incubation 0.5 h): 36.4 µg/mL
- Concentration of the target in the solution measured after different incubation time ([4]; binary system with 0.5% polymer 107, incubation 3 h): 35.4 µg/mL
- Concentration of the target in the solution measured after different incubation time ([4]; binary system with 0.5% polymer 107, incubation 6 h): 35.3 µg/mL
- Concentration of the target in the solution measured after different incubation time ([4]; binary system with 0.5% polymer 110, incubation 0.5 h): 6.4 µg/mL
- Concentration of the target in the solution measured after different incubation time ([4]; binary system with 0.5% polymer 110, incubation 3 h): 11.1 µg/mL
- Concentration of the target in the solution measured after different incubation time ([4]; binary system with 0.5% polymer 110, incubation 6 h): 4.8 µg/mL
- Concentration of guest molecule in solution ([5]; ternary: 0.25% 102L + 0.1% 313): 988.1 µg/mL
- Times that in Comparative Example 3 ([5]; ternary: 0.25% 102L + 0.1% 313): 31.9 times
- Concentration of guest molecule in solution ([5]; ternary: 0.25% 102L + 1.0% 313): 352.3 µg/mL
- Times that in Comparative Example 3 ([5]; ternary: 0.25% 102L + 1.0% 313): 11.4 times
